Measurements: ChEMBL document CHEMBL3593213, “Isolation of a Cyclic Depsipetide, Aspergillicin F, and Synthesis of Aspergillicins with Innate Immune-Modulating Activity” (J Nat Prod, 2015)
The source made the active and inactive calls. No cut-off for these calls is given here.

Tests used:
Drosophila [1] = experiment: Innate immunity-regulating activity in Drosophila Dpt-lacZ larvae assessed as suppression of immune response by measuring DAP-type peptidoglycan-mediated Dpt-lacZ activation at 10 ug/ml incubated at 25 degC for 12 hrs by beta-galactosidase reporter gene assay; type: functional
Drosophila [2] = experiment: Innate immunity-regulating activity in Drosophila Dpt-lacZ larvae assessed as suppression of immune response by measuring DAP-type peptidoglycan-mediated Dpt-lacZ activation at 1 ug/ml incubated at 25 degC for 12 hrs by beta-galactosidase reporter gene assay; type: functional, organism-based
Drosophila [3] = experiment: Innate immunity-regulating activity in Drosophila Dpt-lacZ larvae assessed as suppression of immune response by measuring DAP-type peptidoglycan-mediated Dpt-lacZ activation at 0.1 to 100 ug/ml incubated at 25 degC for 12 hrs by beta-galactosidase reporter gene assay; type: functional, organism-based
Drosophila [4] = experiment: Cytotoxicity against Drosophila S2 assessed as reduction in cell viability at 0.1 to 100 ug/ml by WST8 dye based assay

SMILES | inhibition (Drosophila [1]) | further results
CC[C@@H](C)[C@H]1NC(=O)[C@@H](NC(C)=O)[C@@H](C)OC(=O)[C@H](C(C)C)NC(=O)[C@H](Cc2ccccc2)NC(=O)[C@@H]2CCCN2C(=O)[C@@H]2CCCN2C1=O | inactive | –
CCC[C@H]1NC(=O)[C@@H](NC(C)=O)[C@@H](C)OC(=O)[C@H](C(C)C)NC(=O)[C@H](Cc2ccc(OC)cc2)N(C)C(=O)[C@@H]2CCCN2C(=O)[C@@H]2CCCN2C1=O | inactive | –
CC[C@@H](C)[C@H]1NC(=O)[C@@H](NC(C)=O)[C@@H](C)OC(=O)[C@H]([C@@H](C)CC)NC(=O)[C@H](Cc2ccc(OC)cc2)N(C)C(=O)[C@@H]2CCCN2C(=O)[C@@H]2CCCN2C1=O | inactive | –
CC[C@@H](C)[C@H]1NC(=O)[C@@H](NC(C)=O)[C@@H](C)OC(=O)[C@H](C(C)C)NC(=O)[C@H](Cc2ccc(OC)cc2)N(C)C(=O)[C@@H]2CCCN2C(=O)[C@@H]2CCCN2C1=O | inactive | –
COc1cc(O)c2c(c1)/C=C/C[C@H](O)[C@H](O)[C@@H](O)/C=C/C[C@H](C)OC2=O | – | inhibition (Drosophila [2]): Active
CC[C@@H](C)[C@H]1NC(=O)[C@@H](NC(C)=O)[C@@H](C)OC(=O)[C@H](C(C)C)NC(=O)[C@H](Cc2ccccc2)N(C)C(=O)[C@@H]2CCCN2C(=O)[C@@H]2CCCN2C1=O | inactive | –
CC[C@@H](C)[C@@H]1NC(=O)[C@H](Cc2ccc(OC)cc2)N(C)C(=O)[C@@H]2CCCN2C(=O)[C@@H]2CCCN2C(=O)[C@@H]([C@H](C)CC)NC(=O)[C@@H](NC(C)=O)[C@@H](C)OC1=O | – | inhibition at 10 µg/mL (Drosophila [1]): 37%; inhibition (Drosophila [3]): Dose-dependent effect; Activity (Drosophila [4]): Non-toxic
